In data set [1] the test system is Trypanosoma cruzi. Description: Antiparasitic activity against Trypanosoma cruzi strain CL Brener epimastigotes assessed as growth inhibition after 72 hrs by neubauer chamber analysis. The class given is functional, organism-based.
In data set [2] the target is T1, Trypanothione reductase (Trypanosoma cruzi, UniProt P28593). Kind of data set: Time-dependent inhibition of Trypanosoma cruzi trypanothione reductase assessed as stabilization of enzyme-inhibitor complexes using TS2 as substrate by DTNB-coupled assay. Conditions: read-out: Ki(app).
Data set [3] has as its target T1, Trypanothione reductase. Description: Time-dependent inhibition of Trypanosoma cruzi trypanothione reductase assessed as dissociation constants for enzyme-inhibitor binding using TS2 as substrate by DTNB-coupled assay. Conditions: read-out: Ki(app).
Data set [4] relates to HeLa. Description: Cytotoxicity against human HeLa cells assessed as inhibition of cell proliferation at 5 to 10 ug/ml after 48 hrs by MTT assay. The class given is cell-based.
Data set [5] concerns the target Trypanothione reductase (Trypanosoma cruzi) (UniProt P28593). Description: Time-dependent inhibition of Trypanosoma cruzi trypanothione reductase using TS2 as substrate by DTNB-coupled assay.
Data set [6] concerns Trypanosoma cruzi. Kind of data set: Antiparasitic activity against Trypanosoma cruzi strain CL Brener epimastigotes assessed as growth inhibition at 6 ug/ml after 72 hrs by neubauer chamber analysis in presence of 10 uM H2O2 (Rvb= 7%). The class given is functional.
Data set [7] has as its system Trypanosoma cruzi. Description: Antiparasitic activity against Trypanosoma cruzi strain CL Brener epimastigotes assessed as growth inhibition at 4 ug/ml after 72 hrs by neubauer chamber analysis in presence of 20 uM H2O2 (Rvb= 3%). The class given is functional.
Data set [8] relates to Trypanosoma cruzi. Description: Antiparasitic activity against Trypanosoma cruzi strain CL Brener epimastigotes assessed as growth inhibition at 6 ug/ml after 72 hrs by neubauer chamber analysis in presence of 20 uM H2O2 (Rvb= 8%). The class given is functional.
In data set [9] the test system is Trypanosoma cruzi. Kind of data set: Antiparasitic activity against Trypanosoma cruzi strain CL Brener epimastigotes assessed as growth inhibition at 6 ug/ml after 72 hrs by neubauer chamber analysis in presence of 5 uM H2O2 (reference value: 0%). The class given is functional.
Data set [10] deals with Trypanothione reductase (Trypanosoma cruzi) (UniProt P28593). Description: Reversible competitive slow-binding inhibition of Trypanosoma cruzi trypanothione reductase using TS2 as substrate by DTNB-coupled assay. Particulars: TDE = time-dependent effect.
Data set [11] concerns Trypanosoma cruzi. Description: Antiparasitic activity against Trypanosoma cruzi strain CL Brener epimastigotes assessed as growth inhibition at 4 ug/ml after 72 hrs by neubauer chamber analysis in presence of 10 uM H2O2 (Rvb= 0%). The class given is functional.
Data set [12] deals with Trypanosoma cruzi. Description: Antiparasitic activity against Trypanosoma cruzi strain CL Brener epimastigotes assessed as growth inhibition at 4 ug/ml after 72 hrs by neubauer chamber analysis. The class given is functional. Conditions: read-out: GI.
Data set [13] has as its system HeLa. Description: Cytotoxicity against human HeLa cells assessed as inhibition of cell proliferation at 5 ug/ml after 48 hrs by MTT assay. The class given is cell-based.
Data set [14] has as its system Trypanosoma cruzi. Kind of data set: Antiparasitic activity against Trypanosoma cruzi strain CL Brener epimastigotes assessed as growth inhibition at 4 ug/ml after 72 hrs by neubauer chamber analysis in presence of 5 uM H2O2 (reference value: 4%). The class given is functional.
For data set [15], the system named is Trypanosoma cruzi. Description: Antiparasitic activity against Trypanosoma cruzi strain CL Brener epimastigotes assessed as growth inhibition at 6 ug/ml after 72 hrs by neubauer chamber analysis. The class given is functional. Conditions: read-out: GI.

pIC50, pKi: −log10 of the molar value. Calls of active or inactive are those of the source. No cut-off for these calls is given here.

T1 sequence (P28593 whole entry): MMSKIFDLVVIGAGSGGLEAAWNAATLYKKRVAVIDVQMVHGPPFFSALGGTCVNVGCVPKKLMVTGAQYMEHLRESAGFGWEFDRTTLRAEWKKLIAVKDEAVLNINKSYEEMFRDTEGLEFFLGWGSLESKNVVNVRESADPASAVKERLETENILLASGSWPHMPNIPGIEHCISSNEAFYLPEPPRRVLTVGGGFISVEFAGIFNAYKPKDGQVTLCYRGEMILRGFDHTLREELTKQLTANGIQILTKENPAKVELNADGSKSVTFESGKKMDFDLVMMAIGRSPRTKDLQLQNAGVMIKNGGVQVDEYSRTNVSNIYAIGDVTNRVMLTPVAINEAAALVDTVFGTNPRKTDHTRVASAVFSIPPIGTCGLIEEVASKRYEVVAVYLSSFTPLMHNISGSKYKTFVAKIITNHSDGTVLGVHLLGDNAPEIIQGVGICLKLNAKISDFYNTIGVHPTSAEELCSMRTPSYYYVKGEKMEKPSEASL
Trypanothione reductase (Trypanosoma cruzi), sequence (P28593 whole entry, looked up): as the sequence (P28593 whole entry) above

In the case of `c1ccc(CCCNCc2ccccc2)cc1`, the negative-log IC50 (pIC50) in data set [1] is 3.99.
With `O=C1CC[C@]23/C=C/C(=O)NCCCCNCCCNC(=O)/C=C\c4ccc(c2c4)O[C@@H]3C1`, the negative logarithm of the Ki (pKi) in [2] is 3.94; in data set [3] it was 3.52.
In the case of `Cc1cc(C)c(CCCCNCc2ccccc2)c(C)c1O`, the Activity result in data set [4] is “Toxic”. In data set [5], the inhibition result is “inactive”. Further, the negative-log IC50 (pIC50) in [1] was 5.00.
In the case of `Cc1cc(C)c(CCCC=O)c(C)c1O`, the negative logarithm of the IC50 (pIC50) in [1] was 3.31.
With `Nc1nc(N)nc(Nc2ccc([As]=O)cc2)n1` (stereo not drawn) [MELARSEN OXIDE], the pKi was 5.85 in data set [2] and 4.74 in [3].
In the case of `Cc1cc(C)c(CCCCN(CCCCc2c(C)cc(C)c(O)c2C)Cc2ccccc2)c(C)c1O`, the “growth inhibition (GI)” value worked out at 58% in data set [6]; 50% in data set [7]; 53% in data set [8]; 58% in data set [9]; 52% in data set [11]; 48% in data set [14]. The pKi was 4.43 in [2] and 3.54 in data set [3]. In addition, the inhibition result in [10] is “tde”. In data set [12], the inhibition of growth at 4 µg/mL was 50%. The Activity entry in data set [13] is recorded as “Non-toxic”. The pIC50 in data set [1] was 5.10. Also, the inhibition of growth at 6 µg/mL in data set [15] is 49%.
For `CCCN(CCCCc1c(C)cc(C)c(O)c1C)CCCCc1c(C)cc(C)c(O)c1C`, the pIC50 in [1] is 4.28.
Still for that read-out and setting: under `c1ccc(CCCN(CCCc2ccccc2)Cc2ccccc2)cc1` stands 4.46.
With `O=C(Cn1ccnc1[N+](=O)[O-])NCc1ccccc1` [BENZNIDAZOLE], the Activity entry in [13] is listed as “Non-toxic”. The pIC50 in data set [1] was 5.00.
`CCCNCCCCc1c(C)cc(C)c(O)c1C`: the negative logarithm of the IC50 (pIC50) in data set [1] is 4.25.
As to `C=CCc1cc(C)c(O)c(C)c1CCCCNCc1ccccc1`, the negative logarithm of the IC50 (pIC50) in [1] was 3.74.
The same measure, in the same setting: under `CCCNCCCc1ccccc1` stands 3.62.
On to `CCCN(CCCc1ccccc1)CCCc1ccccc1`, for which the Activity result in [13] was “Non-toxic”. Further, in data set [1], the negative logarithm of the IC50 (pIC50) was 4.73.
For `C=CCc1cc(C)c(O)c(C)c1CCCCN(CCCCc1c(CC=C)cc(C)c(O)c1C)Cc1ccccc1` the same measures were “Non-toxic” and 4.70.

These data come from ChEMBL document CHEMBL3217625, “Syntheses of a new class of phenyl butyraldehyde-derived amines with in vitro trypanocide activities” (Medchemcomm, 2012).
